The supplement of paper PMC13380429

Tests used:
Conditions in all cases: 72 h
Caco-2 [1] = test: relative viability EC50 (midpoint between 100% and the lowest measured viability); higher = less toxic
U2OS [2] = test: as above
Calu-3 [3] = test: as above
Vero E6 [4] = test: as above
Caco-2 [5] = test: drug sensitivity score (DSS) for viability; higher = more toxic; extreme values may be limits of the assay
HepG2 [6] = test: as above
U2OS [7] = test: as above
Calu-3 [8] = test: as above
Vero E6 [9] = test: as above
Caco-2 [10] = test: cell viability relative to DMSO; higher = less toxic
HepG2 [11] = test: as above
U2OS [12] = test: as above
Calu-3 [13] = test: as above
Vero E6 [14] = test: as above
HepG2 [15] = test: relative viability EC50 (midpoint between 100% and the lowest measured viability); higher = less toxic

SMILES	relative viability EC50 (Caco-2 [1])	relative viability EC50 (U2OS [2])	relative viability EC50 (Calu-3 [3])	relative viability EC50 (Vero E6 [4])	drug sensitivity score (Caco-2 [5])	drug sensitivity score (HepG2 [6])	drug sensitivity score (U2OS [7])	drug sensitivity score (Calu-3 [8])	drug sensitivity score (Vero E6 [9])	cell viability (Caco-2 [10]; 1 nM)	cell viability (Caco-2 [10]; 10 nM)	cell viability (Caco-2 [10]; 100 nM)	cell viability (Caco-2 [10]; 1000 nM)	cell viability (Caco-2 [10]; 10000 nM)	cell viability (HepG2 [11]; 1 nM)	cell viability (HepG2 [11]; 10 nM)	cell viability (HepG2 [11]; 100 nM)	cell viability (HepG2 [11]; 1000 nM)	cell viability (HepG2 [11]; 10000 nM)	cell viability (U2OS [12]; 1 nM)	cell viability (U2OS [12]; 10 nM)	cell viability (U2OS [12]; 100 nM)	cell viability (U2OS [12]; 1000 nM)	cell viability (U2OS [12]; 10000 nM)	cell viability (Calu-3 [13]; 1 nM)	cell viability (Calu-3 [13]; 10 nM)	cell viability (Calu-3 [13]; 100 nM)	cell viability (Calu-3 [13]; 1000 nM)	cell viability (Calu-3 [13]; 10000 nM)	cell viability (Vero E6 [14]; 1 nM)	cell viability (Vero E6 [14]; 10 nM)	cell viability (Vero E6 [14]; 100 nM)	cell viability (Vero E6 [14]; 1000 nM)	cell viability (Vero E6 [14]; 10000 nM)	relative viability EC50 (HepG2 [15])
C[C@@H]1CCO[C@H]2Cn3cc(C(=O)NCc4ccc(F)cc4F)c(=O)c(O)c3C(=O)N12 [dolutegravir]	> 10 µM	> 10 µM	> 10 µM	> 10 µM	0.1	2.1	0	0	0.4	102%	94.4%	97.6%	97.7%	88.2%	101%	114%	107%	100%	57.6%	104%	103%	104%	95.6%	98.5%	117%	113%	101%	91.1%	105%	97.3%	99.7%	97%	100%	81.9%	–
CNC[C@H](O)c1ccc(O)c(O)c1 [epinephrine]	> 10 µM	> 10 µM	> 10 µM	> 10 µM	0	3.1	0	0	0	93.7%	105%	86.3%	98.5%	90%	108%	106%	104%	94.4%	57.5%	96.9%	101%	98.2%	104%	105%	101%	110%	111%	111%	97.3%	93.3%	89.7%	95.1%	89.6%	111%	–
CCOC(=O)[C@@H](N)CCC(=O)N[C@@H](CSCc1ccccc1)C(=O)N[C@@H](C(=O)OCC)c1ccccc1 [ezatiostat]	> 10 µM	> 10 µM	> 10 µM	–	0.4	0	0	0	–	98.4%	93.4%	92%	91%	86.2%	101%	98.8%	99.4%	97.1%	107%	96.9%	106%	96.1%	100%	95.3%	97.2%	103%	106%	103%	91.2%	–	–	–	–	–	> 10 µM
NC(=O)c1ccc(I)c([N+](=O)[O-])c1 [iniparib]	–	> 10 µM	> 10 µM	–	–	0	0	0	–	–	–	–	–	–	91.2%	106%	107%	94.2%	106%	104%	95.8%	96.4%	104%	98.4%	110%	99%	103%	102%	114%	–	–	–	–	–	> 10 µM
CCCNS(=O)(=O)Nc1ncnc(OCCOc2ncc(Br)cn2)c1-c1ccc(Br)cc1 [macitentan]	> 10 µM	> 10 µM	> 10 µM	–	0	1.8	0	0	–	102%	99.7%	102%	104%	108%	99.5%	108%	92.7%	85.5%	91%	101%	99.5%	100%	99.4%	101%	97.2%	94.1%	105%	99%	103%	–	–	–	–	–	> 10 µM
O=C(N/N=C/c1ccc([N+](=O)[O-])o1)c1cc([N+](=O)[O-])cc([N+](=O)[O-])c1O [nifursol]	> 10 µM	> 10 µM	> 10 µM	–	0	0.3	0	0	–	96.9%	102%	97.1%	94.4%	90.2%	109%	100%	93%	93.7%	85.4%	96.9%	98.3%	104%	96.8%	101%	89.1%	102%	103%	94.9%	101%	–	–	–	–	–	> 10 µM
COc1ccc(-c2nc3cc(C4=NNC(=O)CC4C)ccc3[nH]2)cc1 (stereo unspecified) [pimobendan]	> 10 µM	> 10 µM	> 10 µM	> 10 µM	1	1.7	0.5	0	0	106%	104%	98.4%	96.4%	80.7%	120%	113%	103%	105%	59.5%	107%	105%	103%	97.7%	84.7%	98%	85.8%	112%	95.8%	90.8%	105%	110%	99.2%	101%	92.7%	–
CCCNCC(O)COc1ccccc1C(=O)CCc1ccccc1 (stereo unspecified) [propafenone]	> 10 µM	> 10 µM	> 10 µM	–	0	1	0	0	2.9	94.7%	89.5%	98.4%	92.8%	88.9%	99.3%	94%	96.4%	99.4%	75.1%	99.1%	93.1%	95.6%	94.3%	92.5%	105%	95.3%	103%	93.7%	99.7%	106%	108%	106%	92.2%	64.9%	> 10 µM
CO[C@H]1/C=C/O[C@@]2(C)Oc3c(C)c(O)c4c(O)c(c(/C=N/N5CCN(C)CC5)c(O)c4c3C2=O)NC(=O)/C(C)=C\C=C\[C@H](C)[C@H](O)[C@@H](C)[C@@H](O)[C@@H](C)[C@H](OC(C)=O)[C@@H]1C [rifampin]	> 10 µM	> 10 µM	> 10 µM	–	0	0.1	0.3	0	1.2	88.9%	88.7%	90.8%	88.5%	105%	97.9%	102%	104%	89.4%	92.4%	96%	105%	98.2%	97.2%	86.9%	99.5%	99.6%	98.7%	99.8%	102%	68.7%	97.8%	70.2%	103%	64.7%	> 10 µM
Cc1cc(C)c(/C=C2\C(=O)Nc3ccccc32)[nH]1 [semaxanib]	> 10 µM	> 10 µM	> 10 µM	> 10 µM	0	2.4	0	0	0	103%	90.6%	100%	90.4%	91.3%	99%	96.2%	91%	92%	67.1%	99.7%	96.6%	100%	99.4%	97.4%	93.2%	87.4%	93.6%	94.9%	102%	103%	102%	98.7%	105%	106%	–
O=C1NCCN1CCN1CCC(c2cn(-c3ccc(F)cc3)c3ccc(Cl)cc23)CC1 [sertindole]	–	> 10 µM	> 10 µM	–	4.6	6.4	0.5	0.1	3.3	97.1%	98.3%	89.1%	80.7%	56.6%	96.7%	105%	93.4%	87.7%	20.9%	93.8%	95.3%	94.6%	99.8%	81%	88.1%	112%	96.9%	92.2%	90%	106%	118%	105%	88.6%	64.5%	1.95 µM
CN[C@@H]1[C@H](O)[C@H](NC)[C@H]2O[C@@]3(O)C(=O)C[C@@H](C)O[C@H]3O[C@@H]2[C@H]1O [spectinomycin]	> 10 µM	> 10 µM	> 10 µM	–	0	0	0	0	1.2	100%	102%	99.4%	109%	91.9%	88.4%	105%	98.7%	106%	96.7%	101%	107%	100%	102%	98.5%	92.2%	100%	105%	103%	88.7%	56%	108%	55.1%	108%	59.1%	> 10 µM
O=C(N[C@@H]1CC[C@@H](c2cccc(F)c2F)CN(CC(F)(F)F)C1=O)N1CCC(n2c(=O)[nH]c3ncccc32)CC1 [telcagepant]	> 10 µM	> 10 µM	> 10 µM	–	0.6	0	0	0	–	104%	96%	102%	90.2%	86.7%	102%	101%	96.9%	98.8%	93.2%	98.5%	99.1%	104%	97%	97.6%	94.7%	98.1%	95.7%	105%	108%	–	–	–	–	–	> 10 µM
CC(C)n1nccc1-c1ncccc1COc1cccc(O)c1C=O [voxelotor]	> 10 µM	> 10 µM	> 10 µM	–	0.2	0	0	0	–	101%	95.4%	96.5%	104%	84.6%	98.1%	109%	96.9%	109%	101%	102%	97.1%	96.5%	95.8%	94.8%	100%	92.4%	102%	98.8%	101%	–	–	–	–	–	> 10 µM
CN(C)CCOC1=Cc2ccccc2Sc2ccc(Cl)cc21 [zotepine]	> 10 µM	> 10 µM	> 10 µM	–	0	4.3	0	0.4	2.2	92.4%	84.1%	91.9%	90.7%	75.7%	104%	95%	98.7%	91.8%	45.7%	104%	97.2%	97.7%	91.5%	92.4%	101%	85.3%	93.3%	104%	80.8%	99.4%	93.6%	98.6%	94.1%	70.4%	1.98 µM
